Where two headings read alike, the source gives them in different places. Where a SMILES comes first, the peptide text is derived from it.

Two compounds from paper PMC3632407 (Chemical communications (Cambridge, England), 2013) can be followed below.

Holding throughout (type): cell-based
Assay [1] relates to E.coli.
The subject of assay [2] is S. nterica. Briefly: Minimal inhibitory concentration for bacteriocidal activity. To be noted: MIC; strains in Supp. Info.
Assay [3] deals with MRSA.
Assay [4] relates to P. aeruginosa.
The subject of assay [5] is K. pneumoniae.
The test system of assay [6] is E. faecium.
Assay [7] has as its system A. baumanii.

As for `N=C(N)NCCC[C@H](NC(=O)[C@H](CS)NC(=O)[C@H](Cc1ccc(O)cc1)NC(=O)[C@H](Cc1c[nH]c2ccccc12)NC(=O)[C@H](CCCNC(=N)N)NC(=O)[C@@H](N)Cc1c[nH]c2ccccc12)C(N)=O` [Complex 1, WRWYCR-NH2] (H-WRWYCR-NH2), the “Minimal inhibitory concentration for bacteriocidal activity, E.coli” value in assay [1] worked out at 17 µM. Further, the “Minimal inhibitory concentration for bacteriocidal activity, S. nterica” value in assay [2] was found to be 8 µM. The “Minimal inhibitory concentration for bacteriocidal activity, MRSA” value in assay [3] was 66 µM. For the same compound, the “Minimal inhibitory concentration for bacteriocidal activity, P. aeruginosa” value in assay [4] amounted to 33 µM. Further, in assay [5], the “Minimal inhibitory concentration for bacteriocidal activity, K. pneumoniae” value was 66 µM. Moreover, in assay [6], the “Minimal inhibitory concentration for bacteriocidal activity, E. faecium” value is 8 µM. Moreover, the “Minimal inhibitory concentration for bacteriocidal activity, A. baumanii” value in assay [7] came to 132 µM.
As to `NC[C@H]1O[C@H](O[C@H]2[C@H](O)[C@@H](O[C@H]3O[C@H](CO)[C@@H](O)[C@H](N)[C@H]3O)[C@H](N)C[C@@H]2N)[C@H](O)[C@@H](O)[C@@H]1O` [kanamycin], the “Minimal inhibitory concentration for bacteriocidal activity, E.coli” value in assay [1] (MIC, strains in Supp. Info) was 8 µM. For the same compound, the “Minimal inhibitory concentration for bacteriocidal activity, S. nterica” value in assay [2] was 1 µM. The “Minimal inhibitory concentration for bacteriocidal activity, MRSA” value in assay [3] (MIC, strains in Supp. Info) came to 264 µM. The “Minimal inhibitory concentration for bacteriocidal activity, P. aeruginosa” value in assay [4] (MIC, strains in Supp. Info) was found to be 33 µM. The “Minimal inhibitory concentration for bacteriocidal activity, K. pneumoniae” value in assay [5] (MIC, strains in Supp. Info) was 66 µM. For the same compound, in assay [6] (MIC, strains in Supp. Info), the “Minimal inhibitory concentration for bacteriocidal activity, E. faecium” value was >264 µM. For the same compound, in assay [7] (MIC, strains in Supp. Info), the “Minimal inhibitory concentration for bacteriocidal activity, A. baumanii” value is >264 µM.
